Results from paper PMC10877290 (Heliyon, 2024).
Entries after “also recorded” stand apart in the source; their conditions may differ.

Experiments:
Type in all cases: biochemical
[1] = target: T1, human pancreatic α-amylase (Homo sapiens, UniProt P04746); test: α-Amylase inhibition assay
T1 sequence (P04746 16-511): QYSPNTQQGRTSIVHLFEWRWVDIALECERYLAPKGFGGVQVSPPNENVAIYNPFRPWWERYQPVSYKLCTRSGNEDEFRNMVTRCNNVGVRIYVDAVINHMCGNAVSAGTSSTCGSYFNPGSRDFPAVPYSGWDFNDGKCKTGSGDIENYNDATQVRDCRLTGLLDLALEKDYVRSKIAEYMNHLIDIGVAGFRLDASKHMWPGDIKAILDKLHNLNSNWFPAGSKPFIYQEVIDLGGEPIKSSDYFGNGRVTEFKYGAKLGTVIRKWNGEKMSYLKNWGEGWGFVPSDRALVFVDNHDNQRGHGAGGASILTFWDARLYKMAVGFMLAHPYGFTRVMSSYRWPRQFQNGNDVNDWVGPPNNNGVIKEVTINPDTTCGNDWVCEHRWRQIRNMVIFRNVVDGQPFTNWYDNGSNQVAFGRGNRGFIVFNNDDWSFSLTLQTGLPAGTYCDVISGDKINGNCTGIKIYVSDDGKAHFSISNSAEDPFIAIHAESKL

[2] = target: human lysosomal acid-α-glucosidase (Homo sapiens, UniProt P10253); test: α-Glucosidase inhibition assay
α-glucosidase = α-glucosidase (Homo sapiens, UniProt P10253); test: Enzyme kinetic study, α-glucosidase; settings: for Inhibition mode towards α-glucosidase: Lineweaver-Burk plot
α-amylase = target: T2, α-amylase (Homo sapiens, UniProt P04746); test: Enzyme kinetic study, α-amylase; settings: for Inhibition mode towards α-amylase: Lineweaver-Burk plot
T2 sequence (P04746 16-511): T1 sequence (P04746 16-511)

COc1cc(C[C@@H]2C[C@H]3C(=O)N(C)[C@@]4(C[C@H](C)CC[C@H]4C(C)C)N3O2)ccc1OCC(=O)N/N=C1\C(=O)Nc2c(Cl)cccc21 [5a, N'-((Z)-7-chloro-2-oxoindolin-3-ylidene)-2-(4-(((1S,2S,2′R,3a′S,5R)-2-isopropyl-5,5′-dimethyl-4′-oxotetrahydro-2′H-spiro[cyclohexane-1,6′-imidazo [1,5-b]isoxazol]-2′-yl)methyl)-2-methoxyphenoxy)acetohydrazide] was tested, and the IC50 [1] was 194 ± 9.54 µM, the “Factor by which α-amylase activity is impaired relative to 5d” value ([1]; 5a versus 5d) was 6.3 and the IC50 [2] was 209 ± 10.4 µM. The “Factor by which α-glucosidase activity is impaired relative to 5d” value ([2]; 5a versus 5d) was 3.2.
Work on COc1cc(C[C@@H]2C[C@H]3C(=O)N(C)[C@@]4(C[C@H](C)CC[C@H]4C(C)C)N3O2)ccc1OCC(=O)N/N=C1\C(=O)Nc2ccc(F)cc21 [5b, N'-((Z)-5-fluoro-2-oxoindolin-3-ylidene)-2-(4-(((1S,2S,2′R,3a′S,5R)-2-isopropyl-5,5′-dimethyl-4′-oxotetrahydro-2′H-spiro[cyclohexane-1,6′-imidazo [1,5-b]isoxazol]-2′-yl)methyl)-2-methoxyphenoxy)acetohydrazide] yielded an IC50 [1] of 174 ± 8.71 µM.
Work on COc1cc(C[C@@H]2C[C@H]3C(=O)N(C)[C@@]4(C[C@H](C)CC[C@H]4C(C)C)N3O2)ccc1OCC(=O)N/N=C1\C(=O)Nc2cc(Br)ccc21 [5c, N'-((Z)-6-bromo-2-oxoindolin-3-ylidene)-2-(4-(((1S,2S,2′R,3a′S,5R)-2-isopropyl-5,5′-dimethyl-4′-oxotetrahydro-2′H-spiro[cyclohexane-1,6′-imidazo [1,5-b]isoxazol]-2′-yl)methyl)-2-methoxyphenoxy)acetohydrazide] yielded an IC50 [1] of 68 ± 3.4 µM and an IC50 [2] of 152 ± 7.56 µM.
With Cc1cccc(C[C@@H]2C[C@H]3C(=O)N(C)[C@@]4(C[C@H](C)CC[C@H]4C(C)C)N3O2)c1OCC(=O)N/N=C1\C(=O)Nc2c(Cl)cccc21 [5d, N'-((Z)-7-chloro-2-oxoindolin-3-ylidene)-2-(2-(((1S,2S,2′R,3a′S,5R)-2-isopropyl-5,5′-dimethyl-4′-oxotetrahydro-2′H-spiro[cyclohexane-1,6′-imidazo [1,5-b]isoxazol]-2′-yl)methyl)-6-methylphenoxy)acetohydrazide] the Ki (α-glucosidase) was 56.1 µM, the “Inhibition mode towards α-glucosidase” value (α-glucosidase) was “competitive inhibitors; also recorded: compete with the substrate” and the IC50 [1] was 30.4 ± 1.52 µM. For the same molecule, the Ki (α-amylase) was 27.5 µM, the “Inhibition mode towards α-amylase” value (α-amylase) was “competitive inhibition; also recorded: competitive inhibitors” and the IC50 [2] was 65.1 ± 3.11 µM.
Cc1cccc(C[C@@H]2C[C@H]3C(=O)N(C)[C@@]4(C[C@H](C)CC[C@H]4C(C)C)N3O2)c1OCC(=O)N/N=C1\C(=O)Nc2cc(Br)ccc21 [5e, N'-((Z)-6-bromo-2-oxoindolin-3-ylidene)-2-(2-(((1S,2S,2′R,3a′S,5R)-2-isopropyl-5,5′-dimethyl-4′-oxotetrahydro-2′H-spiro[cyclohexane-1,6′-imidazo [1,5-b]isoxazol]-2′-yl)methyl)-6-methylphenoxy)acetohydrazide] showed an IC50 [1] of 92.4 ± 4.05 µM and an IC50 [2] of 172 ± 8.44 µM.
With Cc1cccc(C[C@@H]2C[C@H]3C(=O)N(C)[C@@]4(C[C@H](C)CC[C@H]4C(C)C)N3O2)c1OCC(=O)N/N=C1\C(=O)Nc2ccc(F)cc21 [5f, N'-((Z)-5-fluoro-2-oxoindolin-3-ylidene)-2-(2-(((1S,2S,2′R,3a′S,5R)-2-isopropyl-5,5′-dimethyl-4′-oxotetrahydro-2′H-spiro[cyclohexane-1,6′-imidazo [1,5-b]isoxazol]-2′-yl)methyl)-6-methylphenoxy)acetohydrazide] the IC50 [1] was 55.7 ± 2.78 µM and the IC50 [2] was 107 ± 5.31 µM.
Cc1ccc2c(c1)/C(=N/NC(=O)COc1c(C)cccc1C[C@@H]1C[C@H]3C(=O)N(C)[C@@]4(C[C@H](C)CC[C@H]4C(C)C)N3O1)C(=O)N2 [5g, 2-(2-(((1S,2S,2′R,3a′S,5R)-2-isopropyl-5,5′-dimethyl-4′-oxotetrahydro-2′H-spiro[cyclohexane-1,6′-imidazo [1,5-b]isoxazol]-2′-yl)methyl)-6-methylphenoxy)-N'-((Z)-5-methyl-2-oxoindolin-3-ylidene)acetohydrazide] showed an IC50 [1] of 135 ± 6.73 µM.
In the case of Cc1cccc(C[C@@H]2C[C@H]3C(=O)N(C)[C@@]4(C[C@H](C)CC[C@H]4C(C)C)N3O2)c1OCC(=O)N/N=C1\C(=O)Nc2c(F)cccc21 [5h, N'-((Z)-7-fluoro-2-oxoindolin-3-ylidene)-2-(2-(((1S,2S,2′R,3a′S,5R)-2-isopropyl-5,5′-dimethyl-4′-oxotetrahydro-2′H-spiro[cyclohexane-1,6′-imidazo [1,5-b]isoxazol]-2′-yl)methyl)-6-methylphenoxy)acetohydrazide], the IC50 [1] is reported as 46.6 ± 2.3 µM and the IC50 [2] is reported as 85.2 ± 4.25 µM.
For C[C@H]1O[C@H](O[C@H]2[C@H](O)[C@@H](O)[C@@H](O[C@H]3[C@H](O)[C@@H](O)C(O)O[C@@H]3CO)O[C@@H]2CO)[C@H](O)[C@@H](O)[C@@H]1N[C@H]1C=C(CO)[C@@H](O)[C@H](O)[C@H]1O (stereo partly shown) [Acarbose, reference compound], the “Inhibition mode towards α-glucosidase” value (α-glucosidase) was “competitive inhibitors; also recorded: compete with the substrate” and the “Inhibition mode towards α-amylase” value (α-amylase) was “competitive inhibition; also recorded: competitive inhibitors”.
